Data from ChEMBL document CHEMBL5393441, “Bicyclic heterocyclic compounds as inhibitors ofbcdin3d activity” (2022).
Active and inactive are the calls of the source. The calls are words filed in the database; no cut-off is given here.

Assays:
[1] = molecular target: T1, RNA 5'-monophosphate methyltransferase (Homo sapiens, UniProt Q7Z5W3); assay: Binding affinity towards N-terminal ePL-tagged BCDIN3D (unknown origin) transfected in human A549 cells preincubated for 1 hr and measured by InCellPulse thermal stability assay; format: cell-based
T1 sequence (Q7Z5W3 whole entry): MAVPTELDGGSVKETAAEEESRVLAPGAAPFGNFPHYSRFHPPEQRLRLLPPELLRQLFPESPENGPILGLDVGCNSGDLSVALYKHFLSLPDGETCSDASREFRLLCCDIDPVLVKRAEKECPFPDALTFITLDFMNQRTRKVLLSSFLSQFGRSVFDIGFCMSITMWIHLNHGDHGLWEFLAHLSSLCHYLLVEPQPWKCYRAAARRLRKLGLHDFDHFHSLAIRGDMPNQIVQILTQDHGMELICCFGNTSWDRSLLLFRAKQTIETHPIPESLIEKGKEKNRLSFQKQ

[2] = molecular target: T1, RNA 5'-monophosphate methyltransferase; assay: Inhibition of BCDIN3D (unknown origin) using mini-helix and SAM as substrate incubated for 1 hr by RapidFire High Throughput mass spectrometry
[3] = test system: Mus musculus; assay: Antiinflammatory activity in sheep red blood cells (SRBCs)-induced delayed hypersensitivity male CD-1/ICR mouse model at 30 mg/kg administered once daily for 7 days; format: functional, organism-based; conditions: time 7.0 day
[4] = molecular target: T2, RNA 5'-monophosphate methyltransferase (Homo sapiens) (UniProt Q7Z5W3); assay: Inhibition of BCDIN3D in activated CD4+ T cells isolated from human PBMC stimulated with anti-CD3/CD28 and restimulated with PMA and ionomycin for 4 hrs in the presence of brefeldin A assessed as reduction in IFN-gamma production at 100 to 500 nM; format: cell-based; conditions: T cell, dose 100-500 nM
T2 sequence (whole entry): T1 sequence (Q7Z5W3 whole entry)

Row | IC50 [1] [nM] | IC50 [2] [nM] | inhibition [4] | Structure (SMILES) | Activity [3]
1 | 6670 |  |  | Cn1ncc2c(Nc3ccc(C(F)(F)F)cc3)nc(NCC3(N)COC3)nc21 | 
2 | 2990 | 1260 |  | COc1cc(Nc2nc(NCC3(N)CC3)nc3c2cnn3C)cc(OC)c1 | 
3 | 6460 | 1650 |  | Cc1ccc(CNc2nc(NCCN)nc3c2cnn3C)cc1Cl | 
4 | 4650 | 1000 |  | Cn1ncc2c(Nc3cc(F)cc(F)c3)nc(NCC3(N)CC3)nc21 | 
5 | 133 | 38.1 |  | Cn1ncc2c(Nc3ccc(C(F)(F)F)nc3)nc(NC[C@@](C)(N)c3ccccc3)nc21 | 

The next lines start with the compound.

Row | Structure (SMILES) | IC50 [1] [nM] | IC50 [2] [nM] | inhibition [4] | Activity [3]
6 | Cn1ncc2c(NC3CCC(F)(F)C3)nc(NC[C@H](N)c3ccccc3)nc21 (stereo partly drawn) | 580 | 450 |  | 
7 | Cn1ncc2c(NCC3CC(C(F)(F)F)C3)nc(NC[C@H](N)c3ccccc3)nc21 (stereo partly drawn) | 34 | 17 |  | 
8 | CNc1nc(NC[C@](C)(N)c2ccccc2)nc2c1cnn2C | 10800 | 7650 |  | 
9 | Cn1ncc2c(Nc3ccc(Cl)cc3)nc(NC[C@H](N)c3ccccc3)nc21 |  |  | Active | Active
10 | Cn1ncc2c(NC(C)(C)C)nc(NC[C@H](N)c3ccccc3)nc21 |  |  | Active | Active
11 | Cc1cc(Nc2nc(NCC(N)CF)nc3c2cnn3C)ccc1Cl (stereo not drawn) | 5500 | 6170 |  | 
12 | Cn1ncc2c(NC34CC(C3)C4)nc(NCC(N)c3ccccc3)nc21 (stereo not drawn) | 889 | 189 |  | 
